# Test results: patent publication US10969380B2, “Simultaneous detection of cannibalism and senescence as prognostic marker for cancer” (Institut Gustave-Roussy, priority 2012, dated 2021)
# Columns and labels:
# Type in all cases: cell-based, human
# [1] = tested on: HCT116 cells; experiment: Cell-in-cell structures (cellular cannibalism) by confocal microscopy of CMFDA/CMTMR-labelled cocultures; details: for generation of cell-in-cell structures after supplementation with nucleotide: ATP or UTP supplementation, ROCK-dependent; for generation of cell-in-cell structures after TP53 inactivation in presence of inhibitor: TP53 inactivated by PFT-α, knockdown or knockout, 20 μM Y27632 or 100 μM z-VAD
# Protocol: FIG. 1. Identification of TP53 as repressor of cellular cannibalism. (A) Schematic representation of experimental procedure used to evaluate the ability to tumor suppressive depletion to enhance cell in cell internalization. (B) Frequencies of cell-in-cell structures induced by depletion of tumor suppressive proteins in HCT116. After 48 hours of transfection indicated siRNA, colorectal HCT116 cells were stained with CMTMR and CMFDA cell trachers, mixed and cultured during 24 hours. Quantification of cell-in-cell structures induced by depletions of tumor suppressor proteins was realized by confocal microscopy. The frequencies of cell-in-cell structures were determined for at least 300 cells in 3 independent experiments (mean+/−s.e.m, p<0.001). (C) Detection of cell-in-cell structures induced by depletion of TP53, as visualized by confocal microscopy. […] Representative micrographs of xy (scale bar, 5 μm), xz (scale bar, 4 μm) and yz (scale bar, 1 μm) optical sections are shown. Images are representative of at least four independent experiments. (D) Representative micrographs of cell-in-cell structures showing that after depletion of TP53 by two specific siRNAs, (red) CMTR labeled HCT116 cells internalized (red) CMTR labeled HCT116 cells (noted R(R)) or (green) CMFDA labeled HCT116 cells (noted R(G)), and (green) CMFDA labeled HCT116 cells engulfed (red) CMTR labeled HCT116 cells (noted G(R)) or (green) CMFDA labeled HCT116 cells (noted G(G)) (scale, 5 μm). (E) Frequencies of cell-in-cell structures showing R(R), R(G), G(R) or G(G) cell internalization detected after depletion of TP53 by two distinct siRNAs (as compare to control). The frequencies of cell-in-cell structures were determined for at least 300 cells in 3 independent experiments (mean+/−s.e.m, p<0.001). (F) Cell-in-cell structures induced by 10 μM PFT-α, TP53 knockdown, or TP53 knockout in HCT116. Cell-in-cell structures were identified by b-catenin (white), CMFDA (green) and CMTMR (red) staining of internalizing HCT116 cells. Images are representative of at least four independent experiments (scale bar in a, 5 μm and scale bar in b 1 μm). (G) Frequencies of cell-in-cell structures induced by 10 μM PFT-α, TP53 knockdown, or TP53 knockout in HCT116 in presence or in absence of 20 μM of ROCK inhibitor (Y27632) or 100 μM of pan-caspase inhibitor (z-VAD). The frequencies of cell-in-cell structures were determined for at least 300 cells in 3 independent experiments (mean+/−s.e.m, p<0.001). (H) Detection of cell-in-cell structures in TP53 depleted human diploid fibroblasts strain WI38, as visualized by confocal microscopy. […] Representative micrographs of xy (scale bar, 5 μm), xz (scale bar, 4 μm) and yz (scale bar, 1 μm) optical sections are shown. Images are representative of at least four independent experiments. (1) Frequencies of cell-in-cell structures induced by depletion of TP53 in human diploid fibroblasts strain WI38. The frequencies of cell-in-cell structures were determined for at least 300 cells in 3 independent experiments (mean+/−s.e.m, p<0.001).
# After inactivation of TP53 or Δ133TP53, primary human fibroblasts, primary human keratinocytes, colorectal carcinoma Tp53^+/+ HCT116 cells and pancreatic PANC813 cells were incubated during 24 hours in presence or in absence of indicated concentrations of the pharmacological inhibitor of purinergic P2Y2 receptor Kaempferol (Sigma), the pharmacological inhibitor of ROCK Y27632 (Sigma) or the pan-caspase inhibitor zVAD-fmk (100 uM, BD Biosciences), ATP, UTP and soluble apyrase used in indicated experiments were obtained from Sigma.
# After 48 hours of transfection with specific indicated siRNA, cells were stained with 10 μM of 5-chloromethylfluorescein diacetate (Cell Tracker Green CMFDA, Invitrogen) or with 10 μM of 5-(and-6)-(((4-Chloromethyl)Benzoyl)Amino)Tetramethylrhodamine (CMTMR, Invitrogen) and cocultured for indicated time. […]
# [2] = tested on: HCT116 cells; experiment: Release of ATP by ATP-dependent bioluminescence (Enliten ATP assay); details: HCT116 treated with 10 μM CDDP
# Protocol: FIG. 11. Extracellular ATP and purinergic receptor P2Y2 participate in cellular cannibalism. (A.) Detection of cellular cannibalism after cis-platinium (CDDP) or γ-irradiation (IR) treatment. After 24 hours treatment with 10 μM CDDP or irradiation (IR) with 4 grays, half cell population of colon carcinoma HCT116 cells were stained with green CMFDA cell tracker or with red CMTMR cell tracker and analyzed for cellular cannibalism by confocal microscopy after 24 hours of coculture in presence or in absence of 20 μM of ROCK inhibitor (YI27632) or 100 μM of pan-caspase inhibitor (zVAD). The frequencies of cannibal cells were determined for at least 300 cells in 3 independent experiments (mean+/−s.e.m, *p<0.001). (B-D) Detection of ATP release after stimulation with senescent-induced stresses. Release of ATP on HCT116 cells treated with 10 μM CDDP (B) or 4 gray γ-irradiation (IR) (B) Of depleted for p53 (C) or Δ133p53 (C) was determined 2 hours after the beginning of coculture using ATP-dependent bioluminescence in 3 independent experiments, (D) Effect of ROCK inhibitor on ATP release detected after p53 inactivation. Release of ATP was detected as previously described in presence or in absence of 20 μM of Y27632 (mean+/−s.e.m, *p<0.001). […] The frequencies of cell-in-cell structures were determined for at least 300 cells in 3 independent experiments (mean+/−s.e.m, *p<0.001). […]
# [3] = tested on: caspase-3; experiment: Cleavage of caspase-3 by immunoblot; set-up: dose or concentration left out as unconfirmed; details: cisplatin, positive control
# Protocol: FIG. 7. Effects of TP53 inactivation on cellular cannibalism. (A) Detection of cell-in-cell structures induced by depletion of TP53, as visualized by confocal microscopy. […] Images are representative of at least four independent experiments. (B) Detection of cell-in-cell structures induced by depletion of TP53 by light microscopy. (C) Time-lapse imaging of cellular cannibalism detected after depletion of TP53 on HCT116 cells. After 48 hours of transfection with siRNA against TP53, cells were stained as previously described with CMFDA and CMTMR cell trackers and cocultured under time-lapse confocal videomicroscopy. Indicated numbers represent hours and minutes. […] After 48 hours of TP53 knockdown, cleavage of caspase-3 was analyzed by immunoblot. […] Mitotic events and cellular cannibalism were detected and recorded during approximately fifteen hours. […] ROCK activity was determined by detecting the phosphorylation of myosin light chain 2 on serine 19 (MLC2S19*). […] TP53 knocked down, or TP53 knocked out HCT116 cells were analyzed for MLC2S19*, MLC2 or TP53 by immunoblot. […] Tp53^−/+ and Tp53^−/− HCT116 cells are fixed and analyzed by electron microscopy. […] HCT116 cells were transfected with specific siRNAs for TP53 during 48 hours and expression of TP53 (H) or MLCS19* (I) were determined by immunoblots. […]
# [4] = tested on: P2Y2 purinergic receptors; experiment: P2Y2 expression by immunoblot; details: HCT116 treated with 10 μM CDDP
molecule,measurement,setting,value
"Nc1ncnc2c1ncn2C1OC(CO[P@SP3](=O)(O)O[P@SP3](=O)(O)O[P@SP3](=O)(O)O)C(O)C1O (stereo not drawn) [ATP, Adenosine-5′-triphosphate]",generation of cell-in-cell structures after supplementation with nucleotide,[1]; HCT116,strongly enhanced the ROCK-dependent generation of cell-in-cell structures
O=c1ccn([C@@H]2O[C@H](COP(=O)(O)OP(=O)(O)OP(=O)(O)O)[C@@H](O)[C@H]2O)c(=O)[nH]1 [UTP],generation of cell-in-cell structures after supplementation with nucleotide,[1]; HCT116,strongly enhanced the ROCK-dependent generation of cell-in-cell structures
C[C@@H](N)[C@H]1CC[C@H](C(=O)Nc2ccncc2)CC1 [Y26732],generation of cell-in-cell structures after TP53 inactivation in presence of inhibitor,[1],prevented the generation of cell-in-cell structures
N.N.[Cl][Pt][Cl] [cisplatin],release of ATP,[2],released ATP shortly after treatments
same,cleavage of caspase-3,[3],intense cleavage of caspase-3
same,expression of the P2Y2 purinergic receptors,[4],enhanced the expression of the P2Y2 purinergic receptors
Cc1ccc(C(=O)Cn2c3c(sc2=N)CCCC3)cc1 [pifithrin-α],cell-in-cell structures induced by pharmacological inactivation of TP53,"[1]; HCT116, 10 μM PFT-α, 24 hours coculture",induced cell-in-cell structures
Z-VAD-fmk,generation of cell-in-cell structures after TP53 inactivation in presence of inhibitor,[1],not affected
apyrase,cellular internalization induced by the depletion of TP53 or Δ133TP53,"[1]; HCT116, different concentrations of apyrase",reduced cellular internalization
